Experimental data as given in patent US8574563B2 (Bristol-Myers Squibb Company, priority 2006, dated 2013).

The compounds below were run on HCV 1b-377-neo replicon cells (assay: HCV replicon assay, HCV 1b-377-neo replicon cells (1b FRET)). Settings: HCV 1b-377-neo replicon cells; HCV 1b genotype; read-out: EC50 range against HCV 1b (Table 2, Range).
Assay type: cell-based, Hepatitis C virus genotype 1b
Description: An HCV Replion assay was utilized in the present disclosure, and was prepared, conducted and validated as described in commonly owned PCT/US2006/022197 and in O'Boyle et. al. Antimicrob Agents Chemother. 2005 April; 49(4):1346-53.
HCV 1b-377-neo replicon cells were used to test the currently described compound series as well as cells resistant to compound A due to a Y2065H mutation in NS5A (described in application PCT/US2006/022197). The compounds tested were determined to have more than 10-fold less inhibitory activity on cells resistant to compound A than wild-type cells indicating a related mechanism of action between the two compound series. Thus, the compounds of the present disclosure can be effective to inhibit the function of the HCV NS5A protein and are understood to be as effective in combinations as previously described in application PCT/US2006/022197 and commonly owned WO/04014852. Further, the compounds of the present disclosure can be effective against the HCV 1b genotype. It should also be understood that the compounds of the present disclosure can inhibit multiple genotypes of HCV. […] In one embodiment compounds of the present disclosure are active against the 1a, 1b, 2a, 2b, 3a, 4a, and 5a genotypes.
COC(=O)N[C@@H](C(=O)N1CCC[C@H]1c1ncc(-c2ccc(-c3ccc(-c4cnc([C@@H]5CCCN5C(=O)[C@@H]5C[C@H](F)CN5)[nH]4)cc3)cc2)[nH]1)c1ccccc1 [Example 79, methyl ((1R)-2-((2)S-2-(5-(4′-(2-((2S)-1-((4S)-4-fluoro-L-prolyl)-2-pyrrolidinyl)-1H-imidazol-5-yl)-4-biphenylyl)-1H-imidazol-2-yl)-1-pyrrolidinyl)-2-oxo-1-phenylethyl)carbamate] was tested, and the EC50 was 0.001 to 0.999 nM. CCC[C@H](NC(=O)OC)C(=O)N1CCC[C@H]1c1ncc(-c2ccc(-c3ccc(-c4cnc([C@@H]5CCCN5C(=O)[C@H](C)NC(=O)OC)[nH]4)cc3)cc2)[nH]1 [Example M94, methyl ((1S)-1-(((2S)-2-(5-(4′-(2-((2S)-1-((2S)-2-((methoxycarbonyl)amino)propanoyl)-2-pyrrolidinyl)-1H-imidazol-5-yl)-4-biphenylyl)-1H-imidazol-2-yl)-1-pyrrolidinyl)carbonyl)butyl) carbamate] was tested, and the EC50 was 1 to 99 nM.

Same assay, conditions: Hepatitis C virus, HCV 1b-377-neo replicon cells; HCV 1b genotype; read-out: EC50 range against HCV 1b (Table 2, Range)
With COC(=O)N[C@@H](C(=O)N1CCC[C@H]1c1ncc(-c2ccc(-c3ccc(-c4cnc([C@@H]5CCCN5C(=O)Cc5ccc(OC)cc5)[nH]4)cc3)cc2)[nH]1)c1ccccc1 [Example 84-63, methyl ((1R)-2-((2S)-2-(5-(4′-(2-((2S)-1-((4-methoxyphenyl)acetyl)-2-pyrrolidinyl)-1H-imidazol-5-yl)-4-biphenylyl)-1H-imidazol-2-yl)-1-pyrrolidinyl)-2-oxo-1-phenylethyl)carbamate] the EC50 was 0.001 to 0.999 nM. For CC(C)[C@@H](C(=O)N1CCC[C@H]1c1nc(-c2ccc(-c3ccc(-c4cnc([C@@H]5CCCN5C(=O)[C@H](C(C)C)N(C)C(=O)OC(C)(C)C)[nH]4)cc3)cc2)c[nH]1)N(C)C(=O)OC(C)(C)C [Example F30, tert-butyl ((1S)-1-(((2S)-2-(5-(4′-(2-((2S)-1-((2S)-2-((tert-butoxycarbonyl)(methyl)amino)-3-methylbutanoyl)-2-pyrrolidinyl)-1H-imidazol-4-yl)-4-biphenylyl)-1H-imidazol-2-yl)-1-pyrrolidinyl)carbonyl)-2-methylpropyl)methylcarbamate], the EC50 was 1 to 99 nM. COC(=O)N[C@H](C(=O)N1CCC[C@H]1c1ncc(-c2ccc(-c3ccc(-c4cnc([C@@H]5CCCN5C(=O)[C@@H](N)C(C)C)[nH]4)cc3)cc2)[nH]1)C(C)C [Example M108, methyl ((1S)-2-methyl-1-(((2S)-2-(5-(4′-(2-((2S)-1-L-valyl-2-pyrrolidinyl)-1H-imidazol-5-yl)-4-biphenylyl)-1H-imidazol-2-yl)-1-pyrrolidinyl)carbonyl)propyl)carbamate] gave an EC50 of 1 to 99 nM. COC(=O)N[C@H](C(=O)N1CCC[C@H]1c1ncc(-c2ccc(-c3ccc(-c4cnc([C@H]5CCCN5C(=O)[C@H](NC(=O)OC)C(C)C)[nH]4)cc3)cc2)[nH]1)C(C)C [Example M90, methyl ((1S)-1-(((2S)-2-(5-(4′-(2-((2R)-1-((2R)-2-((methoxycarbonyl)amino)-3-methylbutanoyl)-2-pyrrolidinyl)-1H-imidazol-5-yl)-4-biphenylyl)-1H-imidazol-2-yl)-1-pyrrolidinyl)carbonyl)-2-methylpropyl)carbamate] gave an EC50 of 1000 to 10000 nM. With CC(=O)N[C@@H](C(=O)N1CCC[C@H]1c1ncc(-c2ccc(-c3ccc(-c4cnc([C@@H]5CCCN5C(=O)[C@H]5CCCO5)[nH]4)cc3)cc2)[nH]1)c1ccccc1 [Example 118, N-((1R)-2-oxo-1-phenyl-2-((2S)-2-(5-(4′-(2-((2S)-1-((2R)-tetrahydro-2-furanylcarbonyl)-2-pyrrolidinyl)-1H-imidazol-5-yl)-4-biphenylyl)-1H-imidazol-2-yl)-1-pyrrolidinyl)ethyl) acetamide] the EC50 was 0.001 to 0.999 nM. Work on COC(=O)N[C@@H](C(=O)N1CCC[C@H]1c1ncc(-c2ccc(-c3ccc(-c4cnc([C@@H]5CCCN5C(=O)CCN(C)C)[nH]4)cc3)cc2)[nH]1)c1ccccc1 [Example 84-15, methyl ((1R)-2-((2S)-2-(5-(4′-(2-((2S)-1-(N,N-dimethyl-beta-alanyl)-2-pyrrolidinyl)-1H-imidazol-5-yl)-4-biphenylyl)-1H-imidazol-2-yl)-1-pyrrolidinyl)-2-oxo-1-phenylethyl)carbamate] yielded an EC50 of 1 to 99 nM. CN(C)[C@H](C(=O)N1CCC[C@H]1c1ncc(-c2ccc(-c3ccc(-c4cnc([C@@H]5CCCN5C(=O)[C@H](c5ccccc5)N(C)C)[nH]4)cc3)cc2)[nH]1)c1ccccc1 [Example 5, (1S,1′S)-2,2′-(4,4′-biphenyldiylbis(1H-imidazole-5,2-diyl(2S)-2,1-pyrrolidinediyl))bis(N,N-dimethyl-2-oxo-1-phenylethanamine)] was tested, and the EC50 was 1 to 99 nM. In the case of O=C(Cc1cccs1)N1CCC[C@H]1c1ncc(-c2ccc(-c3ccc(-c4cnc([C@@H]5CCCN5C(=O)[C@@H](c5ccccc5)N5CCCCC5)[nH]4)cc3)cc2)[nH]1 [Example 107-30, 1-((1R)-2-oxo-1-phenyl-2-((2S)-2-(5-(4′-(2-((2S)-1-(2-thienylacetyl)-2-pyrrolidinyl)-1H-imidazol-5-yl)-4-biphenylyl)-1H-imidazol-2-yl)-1-pyrrolidinyl)ethyl)piperidine], the EC50 is reported as 0.001 to 0.999 nM. Work on CCN(C)[C@@H](C(=O)N1CCC[C@H]1c1ncc(-c2ccc(-c3ccc(-c4cnc([C@@H]5CCCN5C(=O)[C@@H](c5ccccc5)N(C)CC)[nH]4)cc3)cc2)[nH]1)c1ccccc1 [Example 22, (1R,1′R)-2,2′-(4,4′-biphenyldiylbis(1H-imidazole-5,2-diyl(2S)-2,1-pyrrolidinediyl))bis(N-ethyl-N-methyl-2-oxo-1-phenylethanamine)] yielded an EC50 of 0.001 to 0.999 nM. Compound CCN(CC)[C@H](C)C(=O)N1CCC[C@H]1c1ncc(-c2ccc(-c3ccc(-c4cnc([C@@H]5CCCN5C(=O)[C@@H](c5ccccc5)N(CC)CC)[nH]4)cc3)cc2)[nH]1 [Example M35, (2R)-1-((2S)-2-(5-(4′-(2-((2S)-1-((2R)-2-(diethylamino)-2-phenylacetyl)-2-pyrrolidinyl)-1H-imidazol-5-yl)-4-biphenylyl)-1H-imidazol-2-yl)-1-pyrrolidinyl)-N,N-diethyl-1-oxo-2-propanamine] has an EC50 of 1 to 99 nM. CN(C)[C@H](Cc1ccccc1)C(=O)N1CCC[C@H]1c1ncc(-c2ccc(-c3ccc(-c4cnc([C@@H]5CCCN5C(=O)[C@@H](Cc5ccccc5)N(C)C)[nH]4)cc3)cc2)[nH]1 [cj-147, (2R,2′R)-1,1′-(4,4′-biphenyldiylbis(1H-imidazole-5,2-diyl(2S)-2,1-pyrrolidinediyl))bis(N,N-dimethyl-1-oxo-3-phenyl-2-propanamine)] gave an EC50 of 1 to 99 nM. C=CC[C@H](NC(=O)OC)C(=O)N1CCC[C@H]1c1ncc(-c2ccc(-c3ccc(-c4cnc([C@@H]5CCCN5C(=O)[C@@H](c5ccccc5)N(CC)CC)[nH]4)cc3)cc2)[nH]1 [Example M60, methyl ((1S)-1-(((2S)-2-(5-(4′-(2-((2S)-1-((2R)-2-(diethylamino)-2-phenylacetyl)-2-pyrrolidinyl)-1H-imidazol-5-yl)-4-biphenylyl)-1H-imidazol-2-yl)-1-pyrrolidinyl)carbonyl)-3-buten-1-yl)carbamate] was tested, and the EC50 was 1 to 99 nM. In the case of CCN(CC)[C@H](C)C(=O)N1CCC[C@H]1c1ncc(-c2ccc(-c3ccc(-c4cnc([C@@H]5CCCN5C(=O)[C@H](NC(=O)OC)c5ccccc5)[nH]4)cc3)cc2F)[nH]1 [Example D48, methyl ((1R)-2-((2S)-2-(5-(4′-(2-((2S)-1-(N,N-diethyl-D-alanyl)-2-pyrrolidinyl)-1H-imidazol-5-yl)-3′-fluoro-4-biphenylyl)-1H-imidazol-2-yl)-1-pyrrolidinyl)-2-oxo-1-phenylethyl)carbamate], the EC50 is reported as 0.001 to 0.999 nM. In the case of COC(=O)N[C@@H](C)C(=O)N1CCC[C@H]1c1ncc(-c2ccc(-c3ccc(-c4cnc([C@@H]5CCCN5C(=O)[C@H](NC(=O)OC)c5ccccc5)[nH]4)cc3)cc2)[nH]1 [Example 75, methyl ((1R)-2-((2S)-2-(5-(4′-(2-((2S)-1-(N-(methoxycarbonyl)-L-alanyl)-2-pyrrolidinyl)-1H-imidazol-5-yl)-4-biphenylyl)-1H-imidazol-2-yl)-1-pyrrolidinyl)-2-oxo-1-phenylethyl)carbamate], the EC50 is reported as 0.001 to 0.999 nM. Compound CCN(CC)[C@@H](C(=O)N1CCC[C@H]1c1ncc(-c2ccc(-c3ccc(-c4cnc([C@@H]5CCCN5C(=O)[C@H]5CCCC[C@H]5NC(=O)OC)[nH]4)cc3)cc2)[nH]1)c1ccccc1 [cj-94, methyl ((1R,2S)-2-(((2S)-2-(5-(4′-(2-((2S)-1-((2R)-2-(diethylamino)-2-phenylacetyl)-2-pyrrolidinyl)-1H-imidazol-5-yl)-4-biphenylyl)-1H-imidazol-2-yl)-1-pyrrolidinyl)carbonyl)cyclohexyl)carbamate] has an EC50 of 0.001 to 0.999 nM. With CCN(CC)[C@@H](C(=O)N1CCC[C@H]1c1ncc(-c2ccc(-c3ccc(-c4cnc([C@@H]5CCCN5C(=O)[C@H](Cn5cccn5)NC(=O)OC)[nH]4)cc3)cc2)[nH]1)c1ccccc1 [cj-36, methyl ((1S)-2-((2S)-2-(5-(4′-(2-((2S)-1-((2R)-2-(diethylamino)-2-phenylacetyl)-2-pyrrolidinyl)-1H-imidazol-5-yl)-4-biphenylyl)-1H-imidazol-2-yl)-1-pyrrolidinyl)-2-oxo-1-(1H-pyrazol-1-ylmethyl)ethyl)carbamate] the EC50 was 0.001 to 0.999 nM.
